From patent US11976075B2, “Inhibitors of the MYST family of lysine acetyl transferases” (Isosterix, Inc., priority 2022, dated 2024)

These compounds were tested against T1, Recombinant KAT6A/MOZ (488-778) protein (Homo sapiens, UniProt Q92794) (assay: Kat6a AlphaLISA Inhibition Screening Assay). Settings: 10′ pre-incubation; Table 2; read-out: Kat6A biochemical assay: IC50.
T1 construct: Recombinant KAT6A/MOZ (488-778) protein (Active motif, Catalog #81223); purchased Active Motif 81223
T1 sequence (Q92794 488-778): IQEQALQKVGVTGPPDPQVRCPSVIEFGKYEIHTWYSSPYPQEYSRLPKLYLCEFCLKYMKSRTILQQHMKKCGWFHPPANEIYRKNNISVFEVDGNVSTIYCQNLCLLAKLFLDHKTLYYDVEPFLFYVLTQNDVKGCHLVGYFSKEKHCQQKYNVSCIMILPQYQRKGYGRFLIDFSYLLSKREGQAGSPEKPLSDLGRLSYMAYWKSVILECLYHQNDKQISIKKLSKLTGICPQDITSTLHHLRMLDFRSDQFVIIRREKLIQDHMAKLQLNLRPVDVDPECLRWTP
Format: biochemical
Protocol: The Kat6a inhibitory activity of test compounds was determined using an Alpha Screen-based detection method. The assay reactions were conducted in a volume of 10 μL in Alpha Plate, White 384 well plate (cat #6008280, Perkin Elmer). The enzymatic reactions were performed in assay buffer pH 8.0 (50 mM Tris-HCl, 0.1 mM EDTA, 0.01% Tween-20, 1 mM Dithiothreitol, 0.1% BSA (fatty acid free) and 330 nM TSA (Trichostatin A)). 10 μL reaction volume consisting of 25 nM of Recombinant KAT6A/MOZ (488-778) protein (Active motif, Catalog #81223), 400 nM Acetyl coenzyme A (Catalog #A2056, Sigma), 200 nM of Histone H3 peptide [(amino acids 1-21), biotin-labeled (BPS Biosciences, Catalog #52011,)] and a 10-point dose response curve for test/tool compounds were prepared. Enzyme and compounds solution were pre-incubated in assay plate for 60 or 10 min at room temperature then substrate and Acetyl coenzyme A solution were added to the plate. After addition, the plate was sealed with adhesive seals and incubated for 120 minutes at room temperature.
After 120 minutes of incubation, 5 μL (10 μg/mL) of AlphaLISA anti-acetyl-Lysine acceptor beads (Perkin Elmer, Catalog #AL143C) were added to the plate and it was incubated for 60 minutes at room temperature. Then 10 μL (10 μg/mL) of Alpha Streptavidin donor beads (Perkin Elmer, Catalog #6760002S) were added to the plate which was further incubated for 60 minutes at room temperature. After incubation, the alpha signal was recorded by using Perkin Elmer Envision multi-mode reader.
NA means the compound was not active at the concentration tested. […] NT means not tested.
`CCC(=O)NCc1ccn(Cc2cc(OC)c3c(NS(=O)(=O)CC4CCCCC4)noc3c2)n1` [Synthetic Example 9, N-((1-((3-((cyclohexylmethyl)sulfonamido)-4-methoxybenzo[d]isoxazol-6-yl)methyl)-1H-pyrazol-3-yl)methyl)propionamide] showed an IC50 of at most 10 µM. In the case of `C=CC(=O)N1CCC(C(=O)NCc2ccc3cc(C(=O)NS(=O)(=O)c4ccccc4F)oc3c2)C1` (centres unmarked) [Synthetic Example 40, 1-acryloyl-N-((2-(((2-fluorophenyl)sulfonyl)carbamoyl)benzofuran-6-yl)methyl)pyrrolidine-3-carboxamide], the IC50 is reported as over 100 µM.

Same assay, conditions: 10′ pre-incubation; Table 3; read-out: Kat6A Biochemical assay: IC50
With `COc1cc(Cn2cccn2)cc2nnc(NS(=O)(=O)CC3CCCCC3)n12` [compound 127, N-(7-((1H-pyrazol-1-yl)methyl)-5-methoxy-[1,2,4]triazolo[4,3-a]pyridin-3-yl)-1-cyclohexylmethanesulfonamide] the IC50 was at most 10 µM.

Same assay, conditions: 60′ pre-incubation; Table 2; read-out: Kat6A biochemical assay: IC50
For `C=CC(=O)NCc1cnn(Cc2cc(OC)c3c(NS(=O)(=O)CC4CCCCC4)noc3c2)c1` [Synthetic Example 4, N-((1-((3-((cyclohexylmethyl)sulfonamido)-4-methoxybenzo[d]isoxazol-6-yl)methyl)-1H-pyrazol-4-yl)methyl)acrylamide], the IC50 was at most 10 µM. `C=CC(=O)NCC(=O)NCc1cnn(Cc2cc(OC)c3c(NS(=O)(=O)c4ccccc4OC)noc3c2)c1` [Synthetic Example 61, N-[2-[[1-[[4-methoxy-3-[(2-methoxyphenyl)sulfonylamino]-1,2-benzoxazol-6-yl]methyl]pyrazol-4-yl]methylamino]-2-oxo-ethyl]prop-2-enamide] gave an IC50 of at most 10 µM. Compound `C=CC(=O)N1CCN(c2cccc(-c3cc(OC)c4c(NS(=O)(=O)c5c(OC)cccc5OC)noc4c3)c2)CC1` [Synthetic Example 56, N-(6-(3-(4-acryloylpiperazin-1-yl)phenyl)-4-methoxybenzo[d]isoxazol-3-yl)-2,6-dimethoxybenzenesulfonamide] has an IC50 of at most 10 µM. For `COc1ccccc1S(=O)(=O)Nc1noc2cc(Cn3cc(CNS(=O)(=O)c4c(F)c(F)c(F)c(F)c4F)cn3)cc(OC)c12` [compound 70, 2,3,4,5,6-pentafluoro-N-((1-((4-methoxy-3-((2-methoxyphenyl)sulfonamido)benzo[d]isoxazol-6-yl)methyl)-1H-pyrazol-4-yl)methyl)benzenesulfonamide], the IC50 was at most 10 µM. `C#CC(=O)NCc1cnn(Cc2cc(OC)c3c(NS(=O)(=O)c4cccc(OC)c4)noc3c2)c1` [Synthetic Example 35, N-((1-((4-methoxy-3-((3-methoxyphenyl)sulfonamido)benzo[d]isoxazol-6-yl)methyl)-1H-pyrazol-4-yl)methyl)propiolamide] showed an IC50 of at most 10 µM. Compound `C=CS(=O)(=O)N1C[C@H]2CN(Cc3cc(OC)c4c(NS(=O)(=O)c5ccccc5OC)noc4c3)C[C@H]2C1` [Synthetic Example 59] has an IC50 of at most 10 µM. Compound `C=CC(=O)N1C[C@H]2CN(Cc3cc(OC)c4c(NS(=O)(=O)c5ccccc5OC)noc4c3)C[C@H]2C1` [Synthetic Example 50, N-(6-(((3aR,6aS)-5-acryloylhexahydropyrrolo[3,4-c]pyrrol-2(1H)-yl)methyl)-4-methoxybenzo[d]isoxazol-3-yl)-2-methoxybenzenesulfonamide] has an IC50 of at most 10 µM. `C=CC(=O)N1Cc2cnn(Cc3cc(OC)c4c(NS(=O)(=O)CC5CCCCC5)noc4c3)c2C1` [Synthetic Example 29A, N-(6-((5-acryloyl-5,6-dihydropyrrolo[3,4-c]pyrazol-1(4H)-yl)methyl)-4-methoxybenzo[d]isoxazol-3-yl)-1-cyclohexylmethanesulfonamide] was tested, and the IC50 was at most 10 µM. `CC#CC(=O)NCc1cnn(Cc2cc(OC)c3c(NS(=O)(=O)c4ccccc4OC)noc3c2)c1` [Synthetic Example 57, N-[[1-[[4-methoxy-3-[(2-methoxyphenyl)sulfonylamino]-1,2-benzoxazol-6-yl]methyl]pyrazol-4-yl]methyl] but-2-ynamide] gave an IC50 of at most 10 µM. `C#CC(=O)N1C[C@H]2CN(Cc3cc(OC)c4c(NS(=O)(=O)c5ccccc5OC)noc4c3)C[C@H]2C1` [Synthetic Example 44, 2-methoxy-N-(4-methoxy-6-(((3aR,6aS)-5-propioloylhexahydropyrrolo[3,4-c]pyrrol-2(1H)-yl)methyl)benzo[d]isoxazol-3-yl)benzenesulfonamide] was tested, and the IC50 was at most 10 µM. In the case of `C#CC(=O)NCC(=O)NCc1cnn(Cc2cc(OC)c3c(NS(=O)(=O)c4ccccc4OC)noc3c2)c1` [Synthetic Example 60, N-(2-(((1-((4-methoxy-3-((2-methoxyphenyl)sulfonamido)benzo[d]isoxazol-6-yl)methyl)-1H-pyrazol-4-yl)methyl)amino)-2-oxoethyl)propiolamide], the IC50 is reported as at most 10 µM.

Same assay, conditions: 60′ pre-incubation; Table 3; read-out: Kat6A Biochemical assay: IC50
`C#CC(=O)N1CCN(C(=O)c2cnn(Cc3cc(OC)c4c(NS(=O)(=O)c5cc(CC)ccc5OC)noc4c3)c2)CC1` [compound 95, 5-ethyl-2-methoxy-N-(4-methoxy-6-((4-(4-propioloylpiperazine-1-carbonyl)-1H-pyrazol-1-yl)methyl)benzo[d]isoxazol-3-yl)benzenesulfonamide] showed an IC50 of at most 10 µM. `C#CC(=O)N1CCN(c2cccc(-c3cc(OC)c4c(NS(=O)(=O)c5cc(CC)ccc5OC)noc4c3)c2)CC1` [compound 98, 5-ethyl-2-methoxy-N-(4-methoxy-6-(3-(4-propioloylpiperazin-1-yl)phenyl)benzo[d]isoxazol-3-yl) benzenesulfonamide] showed an IC50 of at most 10 µM. `C#CC(=O)N1CCc2c(cnn2Cc2cc(OC)c3c(NS(=O)(=O)c4cc(CC)ccc4OC)noc3c2)C1` [105a, 5-ethyl-2-methoxy-N-(4-methoxy-6-((5-propioloyl-4,5,6,7-tetrahydro-1H-pyrazolo[4,3-c]pyridin-1-yl)methyl)benzo[d]isoxazol-3-yl)benzenesulfonamide] showed an IC50 of at most 10 µM. Work on `COc1ccccc1S(=O)(=O)Nc1noc2cc(Cn3cc(CNS(=O)(=O)c4ccc(Cl)nc4)cn3)cc(OC)c12` [compound 83, 6-chloro-N-((1-((4-methoxy-3-((2-methoxyphenyl)sulfonamido)benzo[d]isoxazol-6-yl)methyl)-1H-pyrazol-4-yl)methyl)pyridine-3-sulfonamide] yielded an IC50 of at most 10 µM. `C#CC(=O)NCCNC(=O)c1cnn(Cc2cc(OC)c3c(NS(=O)(=O)c4cc(CC)ccc4OC)noc3c2)c1` [compound 94, 1-((3-((5-ethyl-2-methoxyphenyl)sulfonamido)-4-methoxybenzo[d]isoxazol-6-yl)methyl)-N-(2-propiolamidoethyl)-1H-pyrazole-4-carboxamide] gave an IC50 of at most 10 µM. `C#CC(=O)N1CCN(c2cccc(-c3cc(OC)c4c(NS(=O)(=O)NC5CCCCC5)noc4c3)c2)CC1` [compound 111] showed an IC50 of at most 10 µM. In the case of `CCS(=O)(=O)NCc1cnn(Cc2cc(OC)c3c(NS(=O)(=O)c4c(OC)cccc4OC)noc3c2)c1` [compound 108], the IC50 is reported as at most 10 µM. In the case of `C#CC(=O)N1CCC(c2ccnc(-c3cc(C)cc(C(=O)NNS(=O)(=O)c4ccccc4F)c3)c2)C1` (centres unmarked) [compound 92, 2-fluoro-N′-(3-methyl-5-(4-(1-propioloylpyrrolidin-3-yl)pyridin-2-yl)benzoyl)benzenesulfonohydrazide], the IC50 is reported as at most 10 µM. `C#CC(=O)NCc1cnn(Cc2cc(OC)c3c(NS(=O)(=O)c4ccccc4OC)n[nH]c3c2)c1` [compound 76, N-((1-((4-methoxy-3-((2-methoxyphenyl)sulfonamido)-1H-indazol-6-yl)methyl)-1H-pyrazol-4-yl)methyl)propiolamide] showed an IC50 of at most 10 µM.
